From publication PMC4503722, “Novel Phenotypic Outcomes Identified for a Public Collection of Approved Drugs from a Publicly Accessible Panel of Assays” (PLoS ONE, 2015)
Like-named read-outs stand apart in the source and are kept apart here.

How the values were obtained:
Colo320 = test: cells; assay type: cell-based; conditions: for IC50: read-out: Basal_Viability ATP Colo 320 summarized IC50
SW480 = test: cells; assay type: cell-based; conditions: for IC50: read-out: Basal_Viability ATP SW480 summarized IC50
HCT116 = test: cells; assay type: cell-based; conditions: for IC50: read-out: Basal_Viability ATP HCT116 summarized IC50
[1] = system: endothelial tube formation in co-cultures of ECFCs and ADSCs treated with VEGF; test: cells; assay type: cell-based, human; conditions: for IC50: read-out: VEGF_ADSC\ECFC Angio CD31 TubeArea summarized IC50
HT-29 = test: cells; assay type: cell-based; conditions: for IC50: read-out: Basal_Viability ATP HT-29 summarized IC50
[2] = system: ECFC/ADSC co-culture cell nuclei number; conditions: for IC50: read-out: VEGF_ADSC\ECFC Angio Hoechst NucArea summarized IC50
SNU-C1 = test: cells; assay type: cell-based; conditions: for IC50: read-out: Basal_Viability ATP SNU-C1 summarized IC50
DLD-1 = test: cells; assay type: cell-based; conditions: for IC50: read-out: Basal_Viability ATP DLD-1 summarized IC50
HeLa cells = test: cells; assay type: cell-based;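 as to Hela CellCycMod PI 4N summarized IC50: value tracks stimulation of 4N DNA content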
[3] = system: HCT116 cells treated with a GSK3β inhibitor; test: cells; assay type: cell-based; conditions: assay number 26, GSK3b inhibitor pretreated; for IC50: read-out: GSK3b inh pretreated_Viability ATP HCT116 summarized IC50
RKO = test: cells; assay type: cell-based; conditions: assay number 29; for IC50: read-out: Basal_Viability ATP RKO summarized IC50

Cc1nc2ccccc2n1Cc1ccc(Cl)cc1 [NCGC00160416-02]
Basal_Viability ATP Colo 320 IC50/EC50 (Colo320; assay number 27, basal): 15.1764 µM
Basal_Viability ATP SW480 IC50/EC50 (SW480; assay number 24, basal): 5.3305 µM
Basal_Viability ATP HCT116 IC50/EC50 (HCT116; assay number 25, basal): 1.219 µM
VEGF_ADSC\ECFC Angio CD31 TubeArea IC50/EC50 [1]: 7.3825 µM
Basal_Viability ATP HT-29 IC50/EC50 (HT-29; assay number 28, basal): > 20 µM
VEGF_ADSC\ECFC Angio Hoechst NucArea IC50/EC50 [2]: > 10 µM
Basal_Viability ATP SNU-C1 IC50/EC50 (SNU-C1; assay number 30, basal): > 20 µM
Basal_Viability ATP DLD-1 IC50/EC50 (DLD-1; assay number 23, basal): > 20 µM
Hela CellCycMod PI 2N IC50/EC50 (HeLa cells; assay number 14, 2N): > 10 µM
Hela CellCycMod PI 4N IC50/EC50 (HeLa cells; assay number 16, 4N): > 10 µM
Hela CellCycMod PI MI IC50/EC50 (HeLa cells; assay number 17, MI): > 10 µM
Hela CellCycMod PI Cell Number IC50/EC50 (HeLa cells; assay number 18, cell number): 0.03183 µM

CCOP(=S)(OCC)SCSc1ccc(Cl)cc1 [NCGC00166170-02]
IC50 (Colo320; assay number 27, basal): > 20 µM
IC50 (SW480; assay number 24, basal): > 20 µM
IC50 [1]: > 10 µM
IC50 [3]: > 20 µM
IC50 [2]: > 10 µM
IC50 (RKO; basal): > 20 µM
IC50 (SNU-C1; assay number 30, basal): > 20 µM
IC50 (DLD-1; assay number 23, basal): > 20 µM

CC(C)(C)NCC(O)c1cc(O)cc(O)c1.CC(C)(C)NCC(O)c1cc(O)cc(O)c1.O=S(=O)(O)O (stereo not drawn) [NCGC00016010-09]
Basal_Viability ATP Colo 320 IC50/EC50 (Colo320; assay number 27): > 20 µM
Basal_Viability ATP SW480 IC50/EC50 (SW480; assay number 24): > 20 µM
Basal_Viability ATP HCT116 IC50/EC50 (HCT116; assay number 25, basal): > 20 µM
Basal_Viability ATP HT-29 IC50/EC50 (HT-29; assay number 28): > 20 µM
Basal_Viability ATP RKO IC50/EC50 (RKO): > 20 µM
Basal_Viability ATP DLD-1 IC50/EC50 (DLD-1; assay number 23): > 20 µM

Oc1c(I)cc(Cl)c2cccnc12 [NCGC00016391-13]
IC50 (Colo320): 0.586 µM
IC50 (SW480): 0.441 µM
IC50 (HCT116): 0.392 µM
IC50 [1]: > 10 µM
IC50 (HT-29): 18.6 µM
IC50 [2]: > 10 µM
IC50 (SNU-C1): 0.475 µM
IC50 (DLD-1): 0.345 µM
IC50 (HeLa cells; read-out: Hela CellCycMod PI 2N summarized IC50): > 10 µM
IC50 (HeLa cells; read-out: Hela CellCycMod PI 4N summarized IC50): > 10 µM
IC50 (HeLa cells; read-out: Hela CellCycMod PI Cell Number summarized IC50): > 10 µM
IC50 (HeLa cells; read-out: Hela CellCycMod PI MI summarized IC50): > 10 µM

COc1ccc(C(=O)c2ccccc2O)c(O)c1 [NCGC00016393-07]
IC50 (Colo320; assay number 27, basal): > 20 µM
IC50 (SW480; assay number 24, basal): > 20 µM
IC50 (HCT116; assay number 25, basal): > 20 µM
IC50 (HT-29; assay number 28, basal): > 20 µM
IC50 (RKO; basal): > 20 µM
IC50 (DLD-1; assay number 23, basal): > 20 µM

O=C(OCc1ccccc1)c1cccnc1 [NCGC00166105-04]
Basal_Viability ATP Colo 320 IC50/EC50 (Colo320; assay number 27, concentration response): > 20 µM
Basal_Viability ATP HCT116 IC50/EC50 (HCT116; assay number 25, basal, concentration response): > 20 µM
VEGF_ADSC\ECFC Angio CD31 TubeArea IC50/EC50 [1]: > 10 µM
GSK3b inh pretreated_Viability ATP HCT116 IC50/EC50 ([3]; concentration response): > 20 µM
VEGF_ADSC\ECFC Angio Hoechst NucArea IC50/EC50 [2]: > 10 µM
Basal_Viability ATP RKO IC50/EC50 (RKO; concentration response): > 20 µM
Basal_Viability ATP SNU-C1 IC50/EC50 (SNU-C1; assay number 30, concentration response): > 20 µM
Basal_Viability ATP DLD-1 IC50/EC50 (DLD-1; assay number 23, concentration response): > 20 µM

Clc1ccc(C(Cn2ccnc2)OCc2ccc(Sc3ccccc3)cc2)c(Cl)c1 (stereo not drawn) [NCGC00253713-01]
Basal_Viability ATP Colo 320 IC50/EC50 (Colo320; assay number 27): 7.0587 µM
Basal_Viability ATP SW480 IC50/EC50 (SW480; assay number 24): 7.4367 µM
Basal_Viability ATP HCT116 IC50/EC50 (HCT116; assay number 25, basal): 7.7123 µM
VEGF_ADSC\ECFC Angio CD31 TubeArea IC50/EC50 [1]: > 10 µM
GSK3b inh pretreated_Viability ATP HCT116 IC50/EC50 [3]: 6.7686 µM
Basal_Viability ATP HT-29 IC50/EC50 (HT-29; assay number 28): > 20 µM
VEGF_ADSC\ECFC Angio Hoechst NucArea IC50/EC50 [2]: > 10 µM
Basal_Viability ATP RKO IC50/EC50 (RKO): 6.141 µM
Basal_Viability ATP DLD-1 IC50/EC50 (DLD-1; assay number 23): 7.7564 µM

[N-]=[N+]=CC(=O)OC[C@H](N)C(=O)O [NCGC00021876-04]
Basal_Viability ATP SW480 IC50/EC50 (SW480; assay number 24, basal): > 20 µM
Basal_Viability ATP HCT116 IC50/EC50 (HCT116; assay number 25, basal): > 20 µM
Basal_Viability ATP HT-29 IC50/EC50 (HT-29; assay number 28, basal): > 20 µM
Basal_Viability ATP RKO IC50/EC50 (RKO; basal): > 20 µM
Basal_Viability ATP SNU-C1 IC50/EC50 (SNU-C1; assay number 30, basal): > 20 µM
Basal_Viability ATP DLD-1 IC50/EC50 (DLD-1; assay number 23, basal): > 20 µM

CC(C(=O)O)c1cccc(C(=O)c2ccccc2)c1 (stereo not drawn) [NCGC00015578-12]
Basal_Viability ATP SW480 IC50/EC50 (SW480; assay number 24, basal): 10.2684 µM
Basal_Viability ATP HCT116 IC50/EC50 (HCT116; assay number 25, basal): 10.487 µM
Basal_Viability ATP HT-29 IC50/EC50 (HT-29; assay number 28, basal): 14.387 µM
Basal_Viability ATP SNU-C1 IC50/EC50 (SNU-C1; assay number 30, basal): 3.7959 µM
Basal_Viability ATP DLD-1 IC50/EC50 (DLD-1; assay number 23, basal): 8.6441 µM

Oc1ccc(Cl)cc1Cc1ccccc1 [NCGC00091532-06]
IC50 (Colo320; assay number 27, basal): 13 µM
IC50 (SW480; assay number 24, basal): > 20 µM
IC50 (HCT116; assay number 25, basal): > 20 µM
IC50 [3]: > 6.67 µM
IC50 (HT-29; assay number 28, basal): > 20 µM
IC50 (RKO; basal): > 20 µM
